For assay [1], the system named is SW1088 (Low Grade Glioma). Nature of the assay: Bliss excess, mean over the matrix (fraction); higher = more synergy. An outline of the steps:
(§1)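 After 24 hours at 37°C and 5% CO2 in 1536-well plates, cells in DMEM/F12 or RPMI plus 10% FBS received two-drug dose matrices for 72 hours. Viability came from CellTiter-Glo 2.0 luminescence and was scaled as inhibition, anchored at 0 by vehicle wells and at 1 by blank wells. Combination Emax is taken as the second-highest inhibition in the matrix, and Bliss excess as the observed combination effect less EA + EB − EA·EB, with EA and EB the single-agent effects.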

Assay [2] has as its system DB (B-Cell Non-Hodgkin's Lymphoma). The assay is described as above. The gist of the method: as §1
In assay [3] the test system is KARPAS-1106P (B-Cell Non-Hodgkin's Lymphoma). Described as above. The gist of the method:
as §1

Assay [4] relates to KATOIII (Gastric Carcinoma). The description is as above. The gist of the method:
as §1

Assay [5] concerns NCI-H211 (Small Cell Lung Carcinoma). The assay is described as above. An outline of the steps:
as §1

Assay [6] deals with MDA-MB-231 (Breast Carcinoma). The assay is described as above. The gist of the method:
as §1

The test system of assay [7] is G-292-Clone-A141B1 (Osteosarcoma). The description is as above. The gist of the method: as §1
Assay [8] deals with COR-L95 (Small Cell Lung Carcinoma). The assay is described as above. The gist of the method: as §1
Assay [9] deals with NCI-H1299 (Non-Small Cell Lung Carcinoma). The assay is described as above. The gist of the method:
as §1

Assay [10] has as its system DOV13 (Ovarian Carcinoma). The assay is described as above. The gist of the method: as §1
The subject of assay [11] is SN12C (Kidney Carcinoma). Described as above. An outline of the steps: as §1
Assay [12] has as its system OCI-AML2 (Acute Myeloid Leukemia). Described as above. An outline of the steps:
as §1

In assay [13] the test system is MDA-MB-157 (Breast Carcinoma). The description is as above. The gist of the method:
as §1

In assay [14] the test system is SW1088 (Low Grade Glioma). Description: combination Emax (second highest fraction inhibited in the dose matrix, 72 h); higher = more inhibition; extreme values may be limits of the assay. An outline of the steps:
as §1

Assay [15] concerns MFH-ino (Other Solid Carcinomas). The assay is described as above. The gist of the method: as §1
In the next assay the test system is NCI-H2595 (Mesothelioma). Described as above. An outline of the steps: as §1
The test system of assay [16] is NALM-6 (B-Lymphoblastic Leukemia). The assay is described as above. An outline of the steps: as §1
Assay [17] relates to G-292-Clone-A141B1 (Osteosarcoma). Described as above. The gist of the method: as §1
Assay [18] deals with LS-513 (Colorectal Carcinoma). The description is as above. The gist of the method: as §1
Assay [19] relates to SN12C (Kidney Carcinoma). The description is as above. An outline of the steps:
as §1
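Wherever Bliss excess, mean over the matrix is given: after 72 h of two-drug dosing.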

`O=C(c1cc(Cc2n[nH]c(=O)c3ccccc23)ccc1F)N1CCN(C(=O)C2CC2)CC1` [Olaparib] + Cc1c2c(nn1C)CSCc1cc(n(C)n1)CSc1cc(c3ccccc3c1)OCCCc1c(C(=O)O)n(C)c3c-2c(Cl)ccc13 [AZD5991] (first compound max 10 µM, 7x7, partner max 1 µM): the Bliss excess is -0.0383 in assay [1]; 0.0141 in assay [2]; 0.0403 in [3]; -0.0852 in assay [4]; 0.024 in assay [5]; -0.0354 in assay [6]. In addition, the Bliss excess is -0.0462 in assay [7]; -0.0514 in assay [8]; -0.0455 in assay [9]; -0.0158 in assay [10]; -0.053 in the assay with SN12C (Kidney Carcinoma) [11]; 0.0775 in assay [12]. In [13], the Bliss excess was -0.0291. For the same compound, the “combination Emax” value in assay [14] was determined as 0.136; in [15] it was 0.0277; with NCI-H2595 (Mesothelioma), 0.217; in assay [16], 0.74; in assay [17], 0.109; in assay [18] it was 0.204. The “combination Emax” value in the assay with SN12C (Kidney Carcinoma) [19] amounted to 0.065.
For `CS(=O)(=O)CCNCc1ccc(-c2ccc3ncnc(Nc4ccc(OCc5cccc(F)c5)c(Cl)c4)c3c2)o1` [Lapatinib] + NC1(c2ccc(-c3nc4ccn5c(=O)[nH]nc5c4cc3-c3ccccc3)cc2)CCC1 [MK-2206] (first compound max 10 µM, 7x7, partner max 10 µM), the Bliss excess was 0.0163 in assay [1]; -0.0017 in assay [2]; -0.0022 in [3]; 0.0226 in [4]; 0.058 in assay [5]; 0.0364 in [6]. The Bliss excess in [7] is -0.0004; in assay [8], 0.0048; in assay [9] it was 0.0027; in assay [10] it was 0.0362; with SN12C (Kidney Carcinoma) [11], -0.0236; in assay [12] it was 0.0419. Moreover, in assay [13], the Bliss excess is -0.0057. Also, the “combination Emax” value in assay [14] turned out to be 0.624; in assay [15], 0.153; in the assay with NCI-H2595 (Mesothelioma), 0.228; in [16] it was 0.957; in assay [17], 0.468; in [18], 0.951. Also, the “combination Emax” value in the assay on SN12C (Kidney Carcinoma) [19] was 0.238.
As for `CC1(C)CCC(CN2CCN(c3ccc(C(=O)NS(=O)(=O)c4ccc(NCC5CCOCC5)c([N+](=O)[O-])c4)c(Oc4cnc5[nH]ccc5c4)c3)CC2)=C(c2ccc(Cl)cc2)C1` [Venetoclax] + CS(=O)(=O)CCNCc1ccc(-c2ccc3ncnc(Nc4ccc(OCc5cccc(F)c5)c(Cl)c4)c3c2)o1 [Lapatinib] (first compound max 1 µM, 7x7, partner max 10 µM), the Bliss excess is -0.0313 in [1]; 0.0803 in assay [2]; -0.0183 in assay [3]; -0.0386 in assay [4]; -0.0037 in assay [5]; -0.034 in assay [6]. Besides, the Bliss excess in assay [7] was -0.045; in assay [8] it was -0.0566; in [9], -0.0402; in [10], -0.0228; in the assay with SN12C (Kidney Carcinoma) [11], -0.0179; in [12] it was 0.0327. Also, the Bliss excess in assay [13] is -0.0549. Besides, the “combination Emax” value was 0.254 in assay [14]; 0.0533 in [15]; 0.197 with NCI-H2595 (Mesothelioma); 0.911 in assay [16]; 0.113 in [17]; 0.615 in assay [18]. The “combination Emax” value in the assay with SN12C (Kidney Carcinoma) [19] was 0.222.
On to `C[C@@H]1COCCN1c1cc(C2([S@](C)(=N)=O)CC2)nc(-c2ccnc3[nH]ccc23)n1` [AZD6738] + C1CC(C1)(C(=O)[O-])C(=O)[O-].N.N.[Pt+2] [Carboplatin] (first compound max 10 µM, 7x7, partner max 10 µM), for which the Bliss excess is -0.0426 in [1]; -0.0019 in assay [2]; -0.0247 in assay [3]; -0.0879 in [4]; -0.0292 in [5]; -0.0294 in assay [6]. Besides, the Bliss excess was 0.0001 in assay [7]; -0.106 in assay [8]; -0.0401 in [9]; -0.0236 in assay [10]; -0.026 in the assay on SN12C (Kidney Carcinoma) [11]; -0.0318 in assay [12]. Further, in [13], the Bliss excess is -0.0061. Moreover, the “combination Emax” value was determined as 0.602 in [14]; 0.468 in [15]; 0.275 in the assay with NCI-H2595 (Mesothelioma); 0.924 in assay [16]; 0.328 in assay [17]; 0.727 in assay [18]. The “combination Emax” value in the assay on SN12C (Kidney Carcinoma) [19] amounted to 0.222.
On to `C[C@@H](Nc1cc(F)cc(F)c1)c1cc(C(=O)N(C)C)cc2c(=O)cc(N3CCOCC3)oc12` [AZD8186] + C1CN(CCC1(C(=O)N[C@@H](CCO)C2=CC=C(C=C2)Cl)N)C3=NC=NC4=C3C=CN4 [AZD5363] (first compound max 10 µM, 7x7, partner max 10 µM), for which the Bliss excess was -0.0474 in assay [1]; -0.0191 in assay [2]; -0.0234 in [3]; -0.0739 in assay [4]; -0.0006 in assay [5]; 0.0036 in assay [6]. In addition, the Bliss excess in assay [7] is -0.0518; in assay [8] it was -0.0781; in assay [9], 0.0024; in assay [10], 0.026; in the assay with SN12C (Kidney Carcinoma) [11], -0.0471; in assay [12] it was -0.0007. In addition, in assay [13], the Bliss excess is 0.0227. The “combination Emax” value in assay [14] turned out to be 0.742; in assay [15], 0.348; with NCI-H2595 (Mesothelioma), 0.24; in assay [16], 0.674; in [17] it was 0.515; in assay [18], 0.534. For the same compound, the “combination Emax” value in the assay on SN12C (Kidney Carcinoma) [19] was found to be 0.149.
`C=CCn1c(=O)c2cnc(Nc3ccc(N4CCN(C)CC4)cc3)nc2n1-c1cccc(C(C)(C)O)n1` [AZD1775] + Nc1ccn([C@@H]2O[C@H](CO)[C@@H](O)C2(F)F)c(=O)n1 [Gemcitabine] (first compound max 1 µM, partner max 0.3 µM): the Bliss excess is -0.0468 in assay [1]; 0.0085 in [3]; -0.0196 in [4]; 0.0129 in [5]; 0.0686 in [6]; -0.0405 in assay [7]. The Bliss excess in assay [8] is -0.0611; in assay [9], 0.0513; in assay [10] it was 0.016; in the assay with SN12C (Kidney Carcinoma) [11] it was 0.0719; in [12] it was 0.0415; in assay [13], 0.106. Besides, the “combination Emax” value in assay [14] is 0.581; in assay [15], 0.68; with NCI-H2595 (Mesothelioma), 0.344; in assay [16] it was 0.958; in assay [17], 0.317; in assay [18], 0.839. Moreover, the “combination Emax” value with SN12C (Kidney Carcinoma) [19] came to 0.576.
With `N#Cc1cnc(Nc2cc(NC[C@H]3CNCCO3)c(C(F)(F)F)cn2)cn1` [SRA737] + Nc1ccn([C@@H]2O[C@H](CO)[C@@H](O)C2(F)F)c(=O)n1 [Gemcitabine] (first compound max 10 µM, 7x7, partner max 0.3 µM), the Bliss excess was -0.0658 in [1]; 0.0174 in [2]; 0.0126 in assay [3]; -0.0794 in assay [4]; 0.0372 in assay [5]; 0.105 in assay [6]. In addition, the Bliss excess is 0.0405 in assay [7]; -0.0067 in assay [8]; 0.0831 in assay [9]; 0.0821 in [10]; 0.0884 in the assay with SN12C (Kidney Carcinoma) [11]; 0.0499 in assay [13]. In addition, the “combination Emax” value turned out to be 0.626 in assay [14]; 0.738 in assay [15]; 0.397 in the assay with NCI-H2595 (Mesothelioma); 0.954 in [16]; 0.317 in assay [17]; 0.801 in assay [18]. Besides, the “combination Emax” value with SN12C (Kidney Carcinoma) [19] stood at 0.664.
